In patent US7396837B2, “Antitumoral analogs of lamellarins” (Pharma Mar, S.A.U., priority 2002, dated 2008):
Read-outs that look alike come from different tables or passages of the source.

Assays:
Type in all cases: cell-based
SK-BR-3 = experiment: SRB colorimetric cell growth inhibition assay, SK-BR-3; conditions: for GI50: GI=growth inhibition, read-out: GI50 SK-BR-3; for CC50: cell killing (cytotoxic effect), read-out: LC50 SK-BR-3
Outline: (§1)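 In this cytotoxicity screen, compound stays in contact with the cultured human cancer cells without washout; sulforhodamine B binding gives the measure of cell number, and endpoints separate growth inhibition from cytostasis (TGI) and killing (LC).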

SK-MEL-28 = experiment: SRB colorimetric cell growth inhibition assay, SK-MEL-28; conditions: for GI50: GI=growth inhibition, read-out: GI50 MEL-28; for CC50: cell killing (cytotoxic effect), read-out: LC50 MEL-28
Outline: as §1

HeLa = experiment: SRB colorimetric cell growth inhibition assay, HeLa; conditions: for GI50: GI=growth inhibition, read-out: GI50 HELA; for CC50: cell killing (cytotoxic effect), read-out: LC50 HELA
Outline: as §1

LNCaP = experiment: SRB colorimetric cell growth inhibition assay, LNCaP; conditions: LN-caP; for GI50: GI=growth inhibition, read-out: GI50 LN-caP; for CC50: cell killing (cytotoxic effect), read-out: LC50 LN-caP
Outline: as §1

A-549 = experiment: SRB colorimetric cell growth inhibition assay, A-549; conditions: for GI50: GI=growth inhibition, read-out: GI50 A-549; for CC50: cell killing (cytotoxic effect), read-out: LC50 A-549
Outline: as §1

PANC-1 = experiment: SRB colorimetric cell growth inhibition assay, PANC-1; conditions: for GI50: GI=growth inhibition, read-out: GI50 PANC-1; for CC50: cell killing (cytotoxic effect), read-out: LC50 PANC-1
Outline: as §1

HT-29 = experiment: SRB colorimetric cell growth inhibition assay, HT-29; conditions: for GI50: GI=growth inhibition, read-out: GI50 HT-29; for CC50: cell killing (cytotoxic effect), read-out: LC50 HT-29
Outline: as §1

IGROV = experiment: SRB colorimetric cell growth inhibition assay, IGROV; conditions: IGROV; for GI50: GI=growth inhibition, read-out: GI50 IGROV; for CC50: cell killing (cytotoxic effect), read-out: LC50 IGROV
Outline: as §1

DU-145 = experiment: SRB colorimetric cell growth inhibition assay, DU-145; conditions: for CC50: cell killing (cytotoxic effect), read-out: LC50 DU-145; for GI50: GI=growth inhibition, read-out: GI50 DU-145; for IC (TGI): total growth inhibition (cytostatic effect), read-out: TGI DU-145
Outline: as §1

IGROV-ET = experiment: SRB colorimetric cell growth inhibition assay, IGROV-ET (ET-743 resistant); conditions: IGROV-ET; for GI50: GI=growth inhibition, read-out: GI50 IGROV-ET; for CC50: cell killing (cytotoxic effect), read-out: LC50 IGROV-ET
Outline: as §1

LoVo-Dox = experiment: SRB colorimetric cell growth inhibition assay, LoVo-Dox (MDR); conditions: LOVO-DOX; for GI50: GI=growth inhibition, read-out: GI50 LOVO-DOX; for CC50: cell killing (cytotoxic effect), read-out: LC50 LOVO-DOX
Outline: as §1

LoVo = experiment: SRB colorimetric cell growth inhibition assay, LoVo; conditions: for GI50: GI=growth inhibition, read-out: GI50 LOVO; for CC50: cell killing (cytotoxic effect), read-out: LC50 LOVO
Outline: as §1

HeLa-APL = experiment: SRB colorimetric cell growth inhibition assay, HeLa-APL (aplidine resistant); conditions: HELA-APL; for GI50: GI=growth inhibition, read-out: GI50 HELA-APL; for CC50: cell killing (cytotoxic effect), read-out: LC50 HELA-APL
Outline: as §1

K-562 = experiment: SRB colorimetric cell growth inhibition assay, K-562; conditions: for GI50: GI=growth inhibition, read-out: GI50 K-562; for CC50: cell killing (cytotoxic effect), read-out: LC50 K-562
Outline: as §1

[1] = total growth inhibition (cytostatic effect)
[2] = Homo sapiens, SK-MEL-28, MEL-28

## COc1cc(-c2c3c4cc(OC)c(OC(=O)[C@H](C)N)cc4oc(=O)c3n3ccc4c(OC(=O)[C@H](C)N)c(OC)c(OC)cc4c23)ccc1OC(=O)[C@H](C)N [Compound 191]
SK-BR-3; SK-BR-3
  GI50: 555 nM
  CC50: 11700 nM
SK-BR-3; SK-BR-3, total growth inhibition (cytostatic effect)
  TGI SK-BR-3: 3.66E−06 Molar
SK-MEL-28; MEL-28
  GI50: 363 nM
  CC50: 11700 nM
SK-MEL-28; MEL-28, total growth inhibition (cytostatic effect)
  TGI MEL-28: 1.17E−05 Molar
HeLa; HELA
  GI50: 948 nM
  CC50: 8630 nM
HeLa; HELA, total growth inhibition (cytostatic effect)
  TGI HELA: 2.96E−06 Molar
LNCaP; Homo sapiens, LNCaP
  GI50: 244 nM
LNCaP
  CC50: 5360 nM
LNCaP; [1]
  TGI LN-caP: 1.48E−06 Molar
A-549; A-549
  GI50: 573 nM
  CC50: 11700 nM
A-549; A-549, total growth inhibition (cytostatic effect)
  TGI A-549: 1.17E−05 Molar
PANC-1; PANC-1
  GI50: 1270 nM
  CC50: 11700 nM
PANC-1; PANC-1, total growth inhibition (cytostatic effect)
  TGI PANC-1: 9.66E−06 Molar
HT-29; HT-29
  GI50: 6180 nM
  CC50: 11700 nM
HT-29; HT-29, total growth inhibition (cytostatic effect)
  TGI HT-29: 1.17E−05 Molar
IGROV
  GI50: 458 nM
  CC50: 11700 nM
IGROV; [1]
  TGI IGROV: 2.77E−06 Molar
DU-145; DU-145
  CC50: 11700 nM
DU-145; Homo sapiens, DU-145, DU-145
  GI50: 62.1 nM
  IC (TGI): 228 nM
IGROV-ET
  GI50: 588 nM
  CC50: 11700 nM
IGROV-ET; [1]
  TGI IGROV-ET: 6.96E−06 Molar
LoVo-Dox
  GI50: 785 nM
  CC50: 11700 nM
LoVo-Dox; [1]
  TGI LOVO-DOX: 1.17E−05 Molar
LoVo; LOVO
  GI50: 513 nM
  CC50: 7900 nM
LoVo; LOVO, total growth inhibition (cytostatic effect)
  TGI LOVO: 1.70E−06 Molar
HeLa-APL
  GI50: 940 nM
  CC50: 5960 nM
HeLa-APL; [1]
  TGI HELA-APL: 2.52E−06 Molar
K-562; K-562
  GI50: 129 nM
  CC50: 9490 nM
K-562; K-562, total growth inhibition (cytostatic effect)
  TGI K-562: 1.69E−06 Molar

## COc1cc(-c2c3c4cc(OC)c(OC(=O)CCCCCN)cc4oc(=O)c3n3ccc4c(OC(=O)CCCCCN)c(OC)c(OC)cc4c23)ccc1OC(=O)CCCCCN [Compound 193]
SK-BR-3; Homo sapiens, SK-BR-3, SK-BR-3
  GI50: 227 nM
  CC50: 10200 nM
SK-BR-3; Homo sapiens, SK-BR-3, SK-BR-3, total growth inhibition (cytostatic effect), read-out: TGI SK-BR-3
  IC (TGI): 567 nM
SK-MEL-28; [2]
  GI50: 101 nM
  CC50: 10200 nM
SK-MEL-28; Homo sapiens, SK-MEL-28, MEL-28, total growth inhibition (cytostatic effect), read-out: TGI MEL-28
  IC (TGI): 497 nM
HeLa; Homo sapiens, HeLa
  GI50: 350 nM
  CC50: 10200 nM
HeLa; Homo sapiens, HeLa, total growth inhibition (cytostatic effect), read-out: TGI HELA
  IC (TGI): 10200 nM
LNCaP; Homo sapiens, LNCaP
  GI50: 118 nM
  CC50: 5490 nM
LNCaP; Homo sapiens, LNCaP, total growth inhibition (cytostatic effect), read-out: TGI LN-caP
  IC (TGI): 491 nM
A-549; Homo sapiens, A549, A-549
  GI50: 607 nM
  CC50: 10200 nM
A-549; Homo sapiens, A549, A-549, total growth inhibition (cytostatic effect), read-out: TGI A-549
  IC (TGI): 10200 nM
PANC-1; Homo sapiens, PANC-1, PANC-1
  GI50: 278 nM
  CC50: 10200 nM
PANC-1; Homo sapiens, PANC-1, PANC-1, total growth inhibition (cytostatic effect), read-out: TGI PANC-1
  IC (TGI): 3600 nM
HT-29; Homo sapiens, HT-29, HT-29
  GI50: 10200 nM
  CC50: 10200 nM
HT-29; Homo sapiens, HT-29, HT-29, total growth inhibition (cytostatic effect), read-out: TGI HT-29
  IC (TGI): 10200 nM
IGROV; Homo sapiens
  GI50: 74.1 nM
  CC50: 3480 nM
IGROV; Homo sapiens, total growth inhibition (cytostatic effect), read-out: TGI IGROV
  IC (TGI): 410 nM
DU-145; Homo sapiens, DU-145, DU-145
  GI50: 33.3 nM
  CC50: 438 nM
  IC (TGI): 128 nM
IGROV-ET; Homo sapiens
  GI50: 136 nM
  CC50: 9590 nM
IGROV-ET; Homo sapiens, total growth inhibition (cytostatic effect), read-out: TGI IGROV-ET
  IC (TGI): 432 nM
LoVo-Dox; Homo sapiens
  GI50: 313 nM
  CC50: 10200 nM
LoVo-Dox; Homo sapiens, total growth inhibition (cytostatic effect), read-out: TGI LOVO-DOX
  IC (TGI): 10200 nM
LoVo; Homo sapiens, LoVo
  GI50: 350 nM
  CC50: 10200 nM
LoVo; Homo sapiens, LoVo, total growth inhibition (cytostatic effect), read-out: TGI LOVO
  IC (TGI): 847 nM
HeLa-APL; Homo sapiens
  GI50: 797 nM
  CC50: 10200 nM
HeLa-APL; Homo sapiens, total growth inhibition (cytostatic effect), read-out: TGI HELA-APL
  IC (TGI): 10200 nM
K-562; Homo sapiens, K562, K-562
  GI50: 123 nM
  CC50: 3910 nM
K-562; Homo sapiens, K562, K-562, total growth inhibition (cytostatic effect), read-out: TGI K-562
  IC (TGI): 399 nM
